Measurements reported in US4250255A, “Assay method for isoenzyme activity” (Eastman Kodak Company, priority 1977, dated 1981).

Assays:
[1] = system: isoenzymes of creatinine phosphokinase (CPK); test: Conventional coupled CPK assay (hexokinase, glucose-6-phosphate dehydrogenase); assay type: biochemical; settings: conventional assay with coupled reactions, hexokinase and glucose-6-phosphate dehydrogenase
Excerpt: Of course, the particular amphiphile used and the concentration at which it is used will depend upon the particular isoenzyme being assayed. Not every amphiphile will have a discriminatory effect on the activity of isoenzymes in each isoenzyme system.

LD1 = LD1 (Sus scrofa, UniProt P00336); test: LDH isoenzyme assay using a multilayer element; assay type: biochemical, porcine; design: purified porcine LDH isoenzymes; settings: web with DSS 0.54 g/m^2 in the spreading-reagent layer; control web 11
Procedure: (§1) Analytical elements containing all of the reagents necessary to quantitate specific isoenzymes were prepared according to the following format:
(§2) A polycarbonate-subbed Lexan® support was coated with a reagent layer comprising agarose (2.7 g/m^2) and NADH (0.12 g/m^2) in 0.1 M Tris buffer at pH 7.4, and a spreading-reagent layer comprising Avicel® (43 g/m^2), sodium pyruvate (0.5 g/m^2), polyvinyl pyrrolidone (PVP) (2.15 g/m^2) in isopropyl alcohol, and sodium decylsulfate (DSS) (0.54 g/m^2).
(§3) Control webs were coated as above except no sodium decylsulfate was added to the spreading-reagent layer.
(§4) Two aqueous solutions of purified porcine LDH isoenzymes, one containing LD1 and the other LD5, were prepared in 0.01 M Tris buffer, pH 7.4, at approximately 90 mU/ml. Sample aliquots (10 μl) of each solution and a buffer control (0.01 M Tris) were spotted onto the webs which were then monitored in a POS unit for decreasing fluorescence of the NADH with respect to time at 340 nm.

LD5 = LD5 (Sus scrofa, UniProt P00339); test: LDH isoenzyme assay using a multilayer element; assay type: biochemical, porcine; design: purified porcine LDH isoenzymes; settings: web with DSS 0.54 g/m^2 in the spreading-reagent layer; control web 13
Procedure: as §1, §2, §3, §4

Chain of LD1 (P00336 2-334): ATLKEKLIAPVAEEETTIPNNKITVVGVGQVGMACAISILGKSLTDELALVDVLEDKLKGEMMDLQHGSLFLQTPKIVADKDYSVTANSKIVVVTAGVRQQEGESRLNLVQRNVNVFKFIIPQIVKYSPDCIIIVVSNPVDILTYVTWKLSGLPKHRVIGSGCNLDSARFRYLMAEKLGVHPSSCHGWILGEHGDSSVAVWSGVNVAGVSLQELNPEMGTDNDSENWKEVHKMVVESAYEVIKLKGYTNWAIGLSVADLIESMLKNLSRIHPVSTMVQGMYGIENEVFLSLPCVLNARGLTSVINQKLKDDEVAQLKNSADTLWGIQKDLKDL

CCCCCCCCCCOS(=O)(=O)[O-].[Na+] [DSS, sodium decylsulfate]
discriminatory effect on the activities of the isoenzymes of CPK [1]: do not appear to have any discriminatory effect | Isoenzyme Activity LD1 (LD1): 15 | Isoenzyme Activity LD5 (LD5): 0
